pIC50: −log10 of the molar value. Where a name gives a salt, the structure may show the parent alone.

The term pIC50 denotes the negative decadic logarithm of the IC50, by convention in mol/L.

The target in the assay is T1, human IKK-β (Homo sapiens, UniProt O14920).
T1 construct: A cDNA fragment encoding human IKK-β open reading frame was generated by PCR; His tag (from pcDNA3.1/His C); made in house; host or cells: Sf21 insect cells (baculovirus); substrate made in E. coli
T1 sequence (O14920 1-756): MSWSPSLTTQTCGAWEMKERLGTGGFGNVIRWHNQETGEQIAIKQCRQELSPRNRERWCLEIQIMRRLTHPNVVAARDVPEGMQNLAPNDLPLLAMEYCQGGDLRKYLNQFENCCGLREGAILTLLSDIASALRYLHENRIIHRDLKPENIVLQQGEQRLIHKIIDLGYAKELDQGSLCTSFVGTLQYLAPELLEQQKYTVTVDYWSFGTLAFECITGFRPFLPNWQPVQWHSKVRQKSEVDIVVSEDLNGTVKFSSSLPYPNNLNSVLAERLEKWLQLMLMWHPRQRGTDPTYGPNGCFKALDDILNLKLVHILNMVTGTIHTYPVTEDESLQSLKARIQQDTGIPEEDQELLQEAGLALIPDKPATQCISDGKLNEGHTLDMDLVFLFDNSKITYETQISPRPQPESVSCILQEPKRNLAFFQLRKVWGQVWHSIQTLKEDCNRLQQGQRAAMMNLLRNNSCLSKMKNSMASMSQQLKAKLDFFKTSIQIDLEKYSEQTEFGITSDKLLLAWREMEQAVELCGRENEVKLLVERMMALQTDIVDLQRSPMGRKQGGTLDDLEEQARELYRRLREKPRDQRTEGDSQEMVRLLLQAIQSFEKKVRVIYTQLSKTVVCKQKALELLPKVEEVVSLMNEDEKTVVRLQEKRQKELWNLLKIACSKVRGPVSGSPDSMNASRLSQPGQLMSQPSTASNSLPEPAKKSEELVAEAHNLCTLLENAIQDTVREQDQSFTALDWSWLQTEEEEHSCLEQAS
Briefly: IKK-β kinase inhibitory assay. It is filed as biochemical. To be noted: compounds as yielded by solid phase synthesis, purity about 40 to 90%, read-out: In vitro activity grade (In vitro IC50). The essentials: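 His-tagged human IKK-β from baculovirus-infected Sf21 cells (0.6 μg/ml final) phosphorylates biotinylated GST-IκBα(1-54) (0.2 μM) in Tris-HCl pH 7.6 buffer with MgCl2. ATP with [γ-33P]ATP added, then 2 h at room temperature. Biotinylated substrate captured on streptavidin plates; bound radioactivity counted by scintillation.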
Turning to `Nc1n[nH]c2nc(-c3ccccc3O)cc(C3CCCNC3)c12` (centres unmarked) [Example 5-1, 2-[3-amino-4-(3-piperidinyl)-1H-pyrazolo[3,4-b]pyridin-6-yl]phenol hydrochloride], the negative logarithm of the IC50 (pIC50) was 5.00 to 5.70. For the compound `N#Cc1c(C2CCNC2)cc(-c2ccccc2O)nc1N` (centres unmarked) [Example 1-2, 2-amino-6-(2-hydroxyphenyl)-4-(3-pirrolidinyl)nicotinonitrile trifluoroacetate], the pIC50 was over 6.30. For `N#Cc1c(C2CCCNC2)cc(-c2c(O)cccc2NCc2ccccc2)nc1N` (centres unmarked) [Example 1-11, 2-amino-6-[2-(benzylamino)-6-hydroxyphenyl]-4-(3-piperidinyl)nicotinonitrile hydrochloride], the pIC50 was 5.70 to 6.30. In the case of `Nc1nc(-c2c(O)cccc2OCC2CC2)cc(C2CCCNC2)c1CNC(=O)NC1CCCCC1` (centres unmarked) [Example 23-3, N-{[2-amino-6-[2-(cyclopropylmethoxy)-6-hydroxyphenyl]-4-(3-piperidinyl)-3-pyridinyl]methyl}-N′-cyclohexylurea hydrochloride] it was over 6.30; in that of `CCOC(=O)NCc1c(C2CCCNC2)cc(-c2c(O)cccc2OCC2CC2)nc1N` (centres unmarked) [Example 23-2, ethyl [2-amino-6-[2-(cyclopropylmethoxy)-6-hydroxyphenyl]-4-(3-piperidinyl)-3-pyridinyl]methylcarbamate hydrochloride], over 6.30; in that of `Nc1nc(-c2ccccc2O)cc2c1CN[C@@H]2Cc1ccccc1` [Example 20-2, 2-[(1R)-4-amino-1-benzyl-2,3-dihydro-1H-pyrrolo[3,4-d]pyridin-6-yl]phenol hydrochloride], over 6.30. The result for `CC(C)(C)OC(=O)c1c(C2CCCNC2)cc(-c2ccccc2O)nc1N` (centres unmarked) [Example 9-1, tert-butyl 2-amino-6-(2-hydroxyphenyl)-4-(3-piperidinyl)nicotinate hydrochloride] reads over 6.30; that for `CC(=O)Nc1cc2c(C3CCCNC3)cc(-c3c(O)cccc3OCC3CC3)nc2[nH]c1=O` (centres unmarked) [Example 29-3, N-[7-[2-(cyclopropylmethoxy)-6-hydroxyphenyl]-2-oxo-5-(3-piperidinyl)-1,2-dihydro-1,8-naphthyridin-3-yl]acetamide hydrochloride], over 6.30. In the case of `CCCNC(=O)c1cc2c(C3CCCNC3)cc(-c3c(O)cccc3OCC3CC3)nc2[nH]c1=O` (centres unmarked) [Example 31-1, 7-[2-(cyclopropylmethoxy)-6-hydroxyphenyl]-2-oxo-5-(3-pipedinyl)-N-propyl-1,2-dihydro-1,8-naphthyridine-3-carboxamide], the pIC50 is over 6.30. On to `O=C1Nc2nc(-c3ccccc3O)cc(C3CCCNC3)c2CO1` (centres unmarked) [Example 18-2, 7-(2-hydroxyphenyl)-5-(3-piperidinyl)-1,4-dihydro-2H-pyrido[2,3-d][1,3]oxazin-2-one hydrochloride], for which the pIC50 was over 6.30. In the case of `CNC(=O)c1c(C2CCCNC2)cc(-c2c(O)cccc2OCC2CC2)nc1N` (centres unmarked) [Example 8-3, 2-amino-6-[2-(cyclopropylmethoxy)-6-hydroxyphenyl]-N-methyl-4-(3-piperidinyl)nicotinamide hydrochloride] it was over 6.30; in that of `CC(=O)Nc1n[nH]c2nc(-c3ccccc3O)cc(C3CCCNC3)c12` (centres unmarked) [Example 5-2, N-[6-(2-hydroxyphenyl)-4-(3-piperidinyl)-1H-pyrazolo[3,4-b]pyridin-3-yl]acetamide hydrochloride], under 5.00; in that of `COCc1c(C2CCCNC2)cc(-c2ccccc2O)nc1N` (centres unmarked) [Example 13-1, 2-[6-amino-5-(methoxymethyl)-4-(3-piperidinyl)-2-pyridinyl]phenol hydrochloride], over 6.30. The result for `N#Cc1c(C2CCCNC2)cc(-c2c(O)cccc2O)nc1N` (centres unmarked) [Example 2-1, 2-amino-6-(2,6-dihydroxyphenyl)-4-(3-piperidinyl)nicotinonitrile hydrochloride] reads over 6.30. In the case of `Nc1nc(-c2ccccc2O)cc(C2CCCNC2)c1CO` (centres unmarked) [Example 11-1, 2-[6-amino-5-(hydroxymethyl)-4-(3-piperidinyl)-2-pyridinyl]phenol hydrochloride] it was over 6.30; in that of `O=C(Nc1cc2c(C3CCCNC3)cc(-c3c(O)cccc3OCC3CC3)nc2[nH]c1=O)c1ccccc1` (centres unmarked) [Example 29-2, N-[7-[2-(cyclopropylmethoxy)-6-hydroxyphenyl]-2-oxo-5-(3-piperidinyl)-1,2-dihydro-1,8-naphthyridin-3-yl]benzamide hydrochloride], over 6.30; in that of `CC1(c2cc(-c3ccccc3O)nc(N)c2C#N)CCCNC1` (centres unmarked) [Example 1-3, 2-amino-6-(2-hydroxyphenyl)-4-(3-methylpiperidin-3-yl)-nicotinonitrile hydrochloride], 5.70 to 6.30. For `Nc1nc(-c2ccccc2O)cc(C2=CCCNC2)c1CO` [Example 11-4, 2-[6′-amino-5′-(hydroxymethyl)-1,2,5,6-tetrahydro-3,4′-bipyridin-2′-yl]phenol hydrochloride], the pIC50 was over 6.30. Consider `Nc1nc(-c2ccccc2O)cc(C2CCCNC2)c1C(=O)O` (centres unmarked) [Example 9-2, 2-amino-6-(2-hydroxyphenyl)-4-(3-piperidinyl)nicotinic acid hydrochloride], for which the pIC50 is over 6.30.

In the case of `O=c1[nH]c2nc(-c3ccccc3O)cc(C3CCCNC3)c2c(=O)n1-c1ccccc1` (centres unmarked) [Example 7-3, 7-(2-hydroxyphenyl)-3-phenyl-5-(3-piperidinyl)pyrido[2,3-d]pyrimidine-2,4(1H,3H)-dione hydrochloride], the negative-log IC50 (pIC50) is 5.70 to 6.30.

As for `CC(=O)Nc1nc(-c2c(O)cccc2OCC2CC2)cc(C2CCNCC2)c1C#N` [Example 6-2, N-[3-cyano-6-[2-(cyclopropylmethoxy)-6-hydroxyphenyl]-4-(4-piperidinyl)-2-pyridinyl]acetamide hydrochloride], the pIC50 is over 6.30. The result for `O=C1NCc2c(C3CCNCC3)cc(-c3c(O)cccc3OCC3CC3)nc2N1` [Example 22-3, 7-[2-(cyclopropylmethoxy)-6-hydroxyphenyl]-5-(4-piperidinyl)-3,4-dihydro-1H-pyrido[2,3-d]pyrimidin-2-one hydrochloride] reads over 6.30. In the case of `Cn1c(=O)[nH]c2nc(-c3ccccc3O)cc(C3CCCNC3)c2c1=O` (centres unmarked) [Example 10-1, 7-(2-hydroxy-phenyl)-3-methyl-5-piperidin-3-yl-1H-pyrido[2,3-d]pyrimidine-2,4-dione hydrochloride] it was over 6.30; in that of `NCCNc1cc(-c2c(O)cccc2OCC2CC2)nc2c1COC(=O)N2` [Example 35-1, 5-[(2-aminoethyl)amino]-7-[2-(cyclopropylmethoxy)-6-hydroxyphenyl]-1,4-dihydro-2H-pyrido[2,3-d][1,3]oxazin-2-one hydrochloride], over 6.30; in that of `O=S1(=O)NCc2c(C3CCCNC3)cc(-c3ccccc3O)nc2N1` (centres unmarked) [Example 22-5, 2-[2,2-dioxido-5-(3-piperidinyl)-3,4-dihydro-1H-pyrido[2,3-c][1,2,6]thiadiazin-7-yl]phenol hydrochloride], over 6.30.

As to `CC(=O)c1c(C2CCCNC2)cc(-c2ccccc2O)nc1N` (centres unmarked) [Example 15-3, 1-[2-amino-6-(2-hydroxyphenyl)4-(3-piperidinyl)-3-pyridinyl]ethanone hydrochloride], the negative-log IC50 (pIC50) is over 6.30. In the case of `Nc1nc(-c2ccccc2O)cc(C2CCCNC2)c1C(O)c1ccccc1` (centres unmarked) [Example 15-2, 2-[6-amino-5-[hydroxy(phenyl)methyl]-4-(3-piperidinyl)-2-pyridinyl]phenol hydrochloride] it was over 6.30; in that of `O=c1[nH]c(=O)c2c(C3CCCNC3)cc(-c3ccccc3O)nc2[nH]1` (centres unmarked) [Example 7-2, 7-(2-hydroxyphenyl)-5-(3-piperidinyl)pyrido[2,3-d]pyrimidine-2,4(1H,3H)-dione hydrochloride], over 6.30; in that of `CN1CCCC(c2cc(-c3c(O)cccc3OCC3CC3)nc(N)c2C#N)C1` (centres unmarked) [Example 3-1, 2-amino-6-[2-(cyclopropylmethoxy)-6-hydroxyphenyl]-4-(1-methyl-3-piperidinyl)nicotinonitrile], over 6.30. For `N#Cc1c(C2CCCC(C(=O)O)C2)cc(-c2ccccc2O)nc1N` (centres unmarked) [Example 1-8, 3-[2-amino-3-cyano-6-(2-hydroxyphenyl)-4-pyridinyl]cyclohexanecarboxylic acid], the pIC50 was 5.70 to 6.30. Turning to `Nc1nc(-c2c(O)cccc2OCC2CC2)cc(C2CCCNC2)c1C(=O)O` (centres unmarked) [Example 9-3, 2-amino-6-[2-(cyclopropylmethoxy)-6-hydroxyphenyl]-4-(3-piperidinyl)nicotinic acid hydrochloride], the negative-log IC50 (pIC50) is over 6.30. For the compound `N#Cc1c(C2CCCNC2)cc(-c2ccccc2O)nc1Nc1ccccc1` (centres unmarked) [Example 4-4, hydrochloride], the pIC50 was under 5.00.

The record behind these values is US6984649B1, “Pyridine derivatives” (Bayer Aktiengesellschaft, priority 2000, dated 2006).
